The values that follow come from patent US11865109B2 (NOVARTIS AG, priority 2019, dated 2024).

SMILES strings stand for the structures.

Assay type in all cases: in vivo, human
The nature of data set [1]: Relative bioavailability and food effect study, single oral dose of 450 mg, plasma PK of Compound 1. The source says:
(§1) Pharmacokinetic samples were obtained and evaluated in all subjects.

The nature of data set [2]: ADME study: PK of total radioactivity in blood and plasma (LSC). More on the design: AUC (last), blood radioactivity / AUC (last), plasma radioactivity / AUC (inf), blood radioactivity: concentration or dose not given beside the values. The protocol: (§2) Six healthy male subjects of aged 18 to 55 years (inclusive) were included in this study.
The study consisted of a 28-day screening period (including baseline period of 1 day) and 12 days of treatment period. The study design is depicted in FIG. 10.
(§3) All treatment administrations (Day 1 to Day 12) occurred approximately 30 minutes following consumption of a standardized meal. Treatments were administered with ˜240 mL water as 4×100 mg hard gelatin capsules. The radioactive release criteria was met and all the subjects were released from the study site on Day 14 afternoon.
(§4) The PK blood sample collection schedule was appropriate to characterize the PK of Compound 1 and any circulating major metabolites. The urine and feces collection schedule was set up adequately to ensure complete excretion of radioactivity. Due to the non-linear PK of Compound 1, the study was conducted at steady state.
(§5) Subjects who met the eligibility criteria were admitted to the study site approximately 24 hours prior to dosing for baseline evaluations. […] Safety assessments included physical examinations, electrocardiograms (ECGs), vital signs, standard clinical laboratory evaluations (hematology, blood chemistry, and urinalysis), AE and serious adverse event (SAE) monitoring.
Blood, plasma, urine, and feces samples were obtained and evaluated in all subjects. […] If the co-efficient of variation of replicate radioactivity measurements was >20%, the sample was re-homogenized and/or reanalyzed.
Single-dose blood and plasma PK parameters (Cmax, Tmax, AUClast and AUCinf), for total radioactivity were derived from plasma and blood concentration versus sampling time data. PK parameters were determined using non-compartmental method(s) with Phoenix WinNonLin (Version 6.4) for total radioactivity.

The nature of data set [3]: ADME study: plasma PK of Compound 1 at steady state (LC-MS/MS). Here is the method: as §2
All treatment administrations (Day 1 to Day 12) occurred approximately 30 minutes following consumption of a standardized meal. Treatments were administered with ˜240 mL water as 4×100 mg hard gelatin capsules.
as §1
The PK parameters were based on the actual recorded sampling times and non-compartmental method(s) with Phoenix WinNonLin (Version 6.4). The terminal rate constant (λz) was determined from automated (WinNonlin algorithm) linear regression of at least the last three points with non-zero concentrations in the terminal phase of the log-transformed concentration-time profile.

Data set [4] is described as follows: ADME study: metabolite pattern analysis in plasma. The protocol:
as §2, §3
(§6) Profiles of radioactive metabolites in urine and feces pools representing more than 90% of total radioactivity in the collected excreta of individual subjects were specified as dose proportion (%) per metabolite.
Pharmacokinetic samples were obtained and evaluated in all subjects. Compound 1 was determined in plasma by a validated liquid chromatography with tandem mass spectrometry (LC-MS/MS) method using electrospray ionization. A non-validated method was used to analyze metabolites of Compound 1.

Data set [5] can be described thus: ADME study: excretion/mass balance of radioactivity in urine and feces. Here is the method: as §2, §3, §4
[14C]-radioactivity data, which was based on LSC analyses, for excreta was used to calculate percentage of dose excreted via urine or feces as well as a total percent of dose recovered.
as §6

The nature of data set [6]: ADME study: safety and tolerability. The note with it: multiple-dose oral 400 mg Compound 1 and single oral 400 mg [14C]Compound 1, healthy subjects. The protocol: as §2, §3, §5
Where [7] appears, read: blood, total radioactivity, mean of N = 6.
Where [8] appears, read: single oral 400 mg [14C]Compound 1 at steady state.
[9] abbreviates: male, human, oral, 400 mg, Day 5, 0-12 hours, steady state, mean of N = 6.
[10] abbreviates: plasma time pools of N = 6 subjects, metabolite pattern analysis.
Where [11] appears, read: time period 0-216 h, mean, radioactivity after [14C]Compound 1.

In general, Tmax refers to the time from dosing to the highest level. By Cmax is commonly meant the peak of the concentration-time curve. One may read the AUC(0-inf) as total exposure, with the tail of the curve extrapolated. On to `COc1nc(C(=O)NC[C@](C)(O)C(F)(F)F)c(N)cc1C(F)(F)F` [Compound 1, (S)-3-amino-6-methoxy-N-(3,3,3-trifluoro-2-hydroxy-2-methylpropyl)-5-(trifluoromethyl)picolinamide], for which, in data set [1] (both sexes, human, plasma, single oral 450 mg, all fasted treatments), the half-life was roughly 16 h. Also, in data set [1] (single 450 mg dose, high-fat meal vs fasted), the Food effect entry is given as “positive food effect”. In addition, the “AUC (inf), blood radioactivity” value in data set [2] (blood, total radioactivity, AUCinf = AUClast + AUCt-inf, mean of N = 6) is reported as 27900 ng-eq·h/mL. For the same molecule, the “Tlast (range), blood radioactivity” value in data set [2] (blood, total radioactivity, N = 6) was 24 to 48 h. In addition, the “AUC (last), blood radioactivity” value in data set [2] (blood, total radioactivity, linear trapezoidal rule, mean of N = 6) is 24700 ng-eq·h/mL. For the same molecule, in data set [2] (setting [7]), the “AUC % Extrap, blood radioactivity” value was 12.2 % of AUCinf and the “AUC (% of 14C-AUCinf plasma), blood radioactivity” value was 57.9 % of 14C-AUCinf plasma. Further, the “Cmax, blood radioactivity” value in data set [2] (blood, total radioactivity, oral 400 mg [14C]Compound 1, mean of N = 6) came to 2670 ng-eq/mL. Moreover, the “Tlast (range), plasma radioactivity” value in data set [2] (plasma, total radioactivity, N = 6) lay within 48 to 96 h. Moreover, the “AUC (last), plasma radioactivity” value in data set [2] (plasma, total radioactivity, linear trapezoidal rule, mean of N = 6) is given as 45600 ng-eq·h/mL. Also, the “AUC % Extrap, plasma radioactivity” value in data set [2] (plasma, total radioactivity, mean of N = 6) is on record as 5.74 % of AUCinf. Further, the “Cmax, plasma radioactivity” value in data set [2] (plasma, total radioactivity, oral 400 mg [14C]Compound 1, mean of N = 6) is listed as 4280 ng-eq/mL. In data set [2] (setting [8]), the “Fraction of total radioactivity in blood confined to the plasma compartment (Fp)” value is listed as 93.3±3.35%. Besides, the “Tlast (range), plasma Compound 1” value in data set [3] (Day 5, 0-12 hours) is on record as 12 h. For the same molecule, the “AUC (% of 14C-AUCinf plasma), plasma Compound 1” value in data set [3] (Day 5, 0-12 hours, mean of N = 6) is 16.6 % of 14C-AUCinf plasma. For the same molecule, the CL/F in data set [3] (male, human, oral, 400 mg b.i.d., steady state, CV % 45.1%, read-out: Steady state plasma clearance (CLss/F), mean (converted)) was 947 mL/min. Also, the Vd/F in data set [3] (male, human, oral, 400 mg b.i.d., steady state, CV % 48.1%, read-out: Apparent volume of distribution (Vz/F), mean) is 335 L. In addition, the Tmax in data set [3] (male, human, oral, 400 mg b.i.d., steady state, Day 5, range 1.0 hour-4.0 hours) stood at 4 h. In data set [3] (setting [9]), this molecule registered an AUC(0-t) of 8170 ng·h/mL and a Cmax of 1680 ng/mL. The AUC(0-inf) in data set [4] (male, human, oral, 400 mg, plasma time pools of N = 6 subjects, AUCinf = AUClast + AUCt-inf) was found to be 22.7 µM·h. Besides, the AUC(0-t) in data set [4] (male, human, oral, 400 mg, plasma time pools of N = 6 subjects, metabolite pattern analysis, linear trapezoidal method, read-out: AUC0-48 h in plasma) came out at 22.1 µM·h. In data set [4] (male, human, oral, 400 mg, plasma time pools of N = 6 subjects, metabolite pattern analysis, read-out: T½ in plasma (converted)), the half-life was 11.2 h. Besides, the “Proportion of the plasma 14C-AUC0-48 h” value in data set [4] (metabolite pattern analysis, oral 400 mg [14C]Compound 1 at steady state) was determined as 18.5%. In addition, the Extent of metabolism result in data set [4] (oral 400 mg [14C]Compound 1 at steady state, humans) was “extensively metabolized”. Moreover, in data set [4] (setting [10]), the “AUC0-48 h, percent of total radiolabeled components AUC0-48 h” value amounted to 18.5% and the “AUCinf, percent of total radiolabeled components AUCinf” value is given as 17.5%. Further, in data set [5] (setting [11]), the “14C-Excretion, Feces” value is given as 5.2 % of dose and the “14C-Excretion, Urine” value is 92.3 % of dose. In addition, the “14C-Excretion, Total” value in data set [5] (time period 0-216 h, urine plus feces, mean, radioactivity after [14C]Compound 1) is given as 97.6 % of dose. Besides, in data set [5] (within 0-96 hours), the “Compound 1 detected in urine” value is 3.35 % of the dose. Also, in data set [6], the Safety and tolerability entry was “safe and well tolerated”.
Take `COc1nc(C(=O)NC[C@](C)(O)C(F)(F)F)c(N)cc1C(F)(F)F` [[14C]Compound 1]: in data set [2] (setting [8]), the “Time post-dose up to which radioactivity was detected in blood” value was “up to 48 hours” and the “Time post-dose up to which radioactivity was detected in plasma” value was no more than 96 h. For the same molecule, in data set [5] (after 96 hours post-dose of [14C]Compound 1), the “Radioactivity in samples collected after 96 hours post-dose” value is given as “less than 3 % of the dose”. For the same molecule, the “Excretion of radioactivity, mean” value in data set [5] (after 9 days, range 93.4%-99.1%) was 97.6%. The “Extent of oral absorption” value in data set [5] (oral 400 mg [14C]Compound 1 at steady state, N=6, range 89.7%-97.40%) is 93.4%. Further, in data set [5] (setting [8]), the “Renal excretion of radioactivity (mainly in the form of metabolites)” value was 92.3±4.2 % of the dose. Moreover, the “Radioactive dose recovered in feces and urine” value in data set [5] (within 96 hours) is reported as > 95 % of dose.
